Literature values as cited in US20250082627A1, “TOBACCO HARM REDUCTION AND PAIN RELIEF PRODUCTS AND METHODS THEREOF” (Ready Mix Naturals, LLC, priority 2023, published 2025).

Assays:
TRPA1 = TRPA1 (Homo sapiens, UniProt O75762)
TRPV2 = molecular target: T1, TRPV2 (Homo sapiens, UniProt Q9Y5S1); conditions: among phytocannabinoids
T1 sequence (Q9Y5S1 1-764): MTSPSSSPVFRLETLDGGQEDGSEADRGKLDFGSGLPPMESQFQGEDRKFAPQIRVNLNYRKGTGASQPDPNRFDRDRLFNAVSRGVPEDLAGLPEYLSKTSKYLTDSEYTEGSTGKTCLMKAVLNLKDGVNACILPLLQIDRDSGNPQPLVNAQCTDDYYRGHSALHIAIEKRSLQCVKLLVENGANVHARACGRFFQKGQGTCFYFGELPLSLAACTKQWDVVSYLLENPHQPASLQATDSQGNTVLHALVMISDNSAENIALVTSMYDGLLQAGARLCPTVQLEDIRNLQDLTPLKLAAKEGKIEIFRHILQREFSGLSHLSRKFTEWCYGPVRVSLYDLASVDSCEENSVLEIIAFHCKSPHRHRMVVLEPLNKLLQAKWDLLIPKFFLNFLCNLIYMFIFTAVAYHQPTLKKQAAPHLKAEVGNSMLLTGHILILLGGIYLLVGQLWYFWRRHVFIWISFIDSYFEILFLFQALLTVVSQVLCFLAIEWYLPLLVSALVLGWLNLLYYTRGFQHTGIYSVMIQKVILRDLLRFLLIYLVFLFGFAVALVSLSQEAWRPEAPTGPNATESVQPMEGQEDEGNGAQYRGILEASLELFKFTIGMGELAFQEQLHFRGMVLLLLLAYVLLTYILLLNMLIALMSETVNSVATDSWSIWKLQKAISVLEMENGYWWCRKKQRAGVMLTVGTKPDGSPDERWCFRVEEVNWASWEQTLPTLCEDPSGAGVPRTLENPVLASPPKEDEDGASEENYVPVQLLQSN

TRPV1 = TRPV1 (Homo sapiens, UniProt Q8NER1); conditions: among phytocannabinoids
Chain of TRPV1 (Q8NER1 whole entry, species assumed): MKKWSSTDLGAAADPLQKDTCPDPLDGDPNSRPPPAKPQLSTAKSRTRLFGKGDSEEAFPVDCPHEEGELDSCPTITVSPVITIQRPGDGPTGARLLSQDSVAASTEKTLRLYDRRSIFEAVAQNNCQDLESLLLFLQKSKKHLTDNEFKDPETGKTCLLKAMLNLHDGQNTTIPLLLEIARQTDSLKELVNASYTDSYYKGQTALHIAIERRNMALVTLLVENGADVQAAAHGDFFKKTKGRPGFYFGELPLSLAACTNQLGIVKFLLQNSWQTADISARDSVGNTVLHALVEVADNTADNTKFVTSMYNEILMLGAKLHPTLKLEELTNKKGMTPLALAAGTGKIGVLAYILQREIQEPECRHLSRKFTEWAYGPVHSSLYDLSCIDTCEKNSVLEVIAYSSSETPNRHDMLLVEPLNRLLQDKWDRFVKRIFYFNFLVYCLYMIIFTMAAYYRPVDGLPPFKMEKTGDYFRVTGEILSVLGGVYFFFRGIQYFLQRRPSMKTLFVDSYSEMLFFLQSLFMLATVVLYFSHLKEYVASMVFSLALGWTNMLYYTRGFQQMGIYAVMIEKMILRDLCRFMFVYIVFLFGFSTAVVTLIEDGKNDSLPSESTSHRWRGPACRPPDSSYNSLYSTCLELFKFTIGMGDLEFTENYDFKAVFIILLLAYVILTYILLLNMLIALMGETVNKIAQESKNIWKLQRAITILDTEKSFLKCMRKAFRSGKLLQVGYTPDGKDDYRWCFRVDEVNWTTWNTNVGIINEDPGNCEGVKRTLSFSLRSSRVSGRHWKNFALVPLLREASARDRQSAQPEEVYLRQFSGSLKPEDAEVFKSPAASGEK

Chain of TRPA1 (O75762 whole entry, species assumed): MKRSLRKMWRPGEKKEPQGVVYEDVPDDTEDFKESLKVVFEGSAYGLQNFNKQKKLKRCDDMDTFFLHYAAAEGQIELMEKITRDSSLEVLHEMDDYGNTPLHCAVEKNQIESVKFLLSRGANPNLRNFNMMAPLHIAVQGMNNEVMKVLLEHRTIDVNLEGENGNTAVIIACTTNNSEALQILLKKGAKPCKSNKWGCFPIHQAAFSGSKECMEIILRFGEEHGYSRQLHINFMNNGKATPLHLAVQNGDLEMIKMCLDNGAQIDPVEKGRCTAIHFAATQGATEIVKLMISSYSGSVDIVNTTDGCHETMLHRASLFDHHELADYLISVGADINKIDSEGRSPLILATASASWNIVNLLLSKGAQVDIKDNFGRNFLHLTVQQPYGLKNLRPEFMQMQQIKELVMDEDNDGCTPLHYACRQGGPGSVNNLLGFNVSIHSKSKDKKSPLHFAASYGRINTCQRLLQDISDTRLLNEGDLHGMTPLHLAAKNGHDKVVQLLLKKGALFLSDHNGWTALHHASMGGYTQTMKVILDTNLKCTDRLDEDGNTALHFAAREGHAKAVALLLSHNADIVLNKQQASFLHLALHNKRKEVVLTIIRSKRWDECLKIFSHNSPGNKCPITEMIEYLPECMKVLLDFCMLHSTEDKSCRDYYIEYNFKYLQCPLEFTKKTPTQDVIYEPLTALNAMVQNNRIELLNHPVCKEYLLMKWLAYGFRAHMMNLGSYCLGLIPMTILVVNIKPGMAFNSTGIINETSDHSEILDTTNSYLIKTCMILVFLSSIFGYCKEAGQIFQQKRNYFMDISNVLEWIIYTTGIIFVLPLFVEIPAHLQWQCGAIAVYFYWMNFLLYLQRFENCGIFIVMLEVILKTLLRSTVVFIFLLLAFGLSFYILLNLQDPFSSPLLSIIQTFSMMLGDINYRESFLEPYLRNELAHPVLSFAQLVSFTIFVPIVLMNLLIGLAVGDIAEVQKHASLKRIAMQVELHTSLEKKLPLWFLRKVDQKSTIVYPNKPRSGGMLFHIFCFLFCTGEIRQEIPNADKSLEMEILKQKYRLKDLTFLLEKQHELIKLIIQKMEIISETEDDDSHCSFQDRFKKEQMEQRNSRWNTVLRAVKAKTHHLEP

| Structure (SMILES) | activation of TRPA1 (TRPA1) | activation of TRPV2 (TRPV2) | agonism of TRPV1 (TRPV1) |
| --- | --- | --- | --- |
| CN1CCCC1c1cccnc1 (stereo not shown) [nicotine] | known activator of TRPA1 |  |  |
| CCCCCc1cc(O)c2c(c1)OC(C)(C)[C@@H]1CCC(C)=C[C@@H]21 [Δ^9-THC, Δ^9-tetrahydrocannabinol] | also activates TRPA1 | most potent phytocannabinoid for activating TRPV2 |  |
| C=C(C)[C@@H]1CCC(C)=C[C@H]1c1c(O)cc(CCCCC)cc1O [CBD, cannabidiol] |  |  | most potent and efficacious phytocannabinoid agonist of TRPV1 |
